Measured values as given in patent US6582717B1, “Drug delivery composition and device” (Massachusetts Institute of Technology, priority 2000, dated 2003).

Experiment: Encapsulation efficiency of drug in PLGA / cyclodextrin delivery matrix
Assay type: physicochemical
[1] = PLGA and Hydroxy-propyl β-Cyclodextrin
[2] = PLGA and Methylated β-Cyclodextrin

| Encapsulation Efficiency (%) (PGLA, no cyclodextrin) | Encapsulation Efficiency (amount encapsulated) (PGLA, no cyclodextrin) | Encapsulation Efficiency (%) [1] | Encapsulation Efficiency (amount encapsulated) [1] | Encapsulation Efficiency (%) [2] | Encapsulation Efficiency (amount encapsulated) [2] | SMILES |
| --- | --- | --- | --- | --- | --- | --- |
| (9.28%) | 185.7 µg | (15.1%) | 302.8 µg | (9.02%) | 180.5 µg | [H]/N=C(\N/C(=N/[H])NCCCCCCNC(=N)NC(=N)Nc1ccc(Cl)cc1)Nc1ccc(Cl)cc1 [Chx, chlorhexidine] |
| (10.2%) | 204.7 µg | (6.1%) | 121.2 µg | (11.5%) | 230.3 µg | N=C(NCCCCCCNC(=N)NC(=N)Nc1ccc(Cl)cc1)NC(=N)Nc1ccc(Cl)cc1.O=C(O)[C@H](O)[C@@H](O)[C@H](O)[C@H](O)CO.O=C(O)[C@H](O)[C@@H](O)[C@H](O)[C@H](O)CO [ChxDg, chlorhexidine digluconate] |
